“And” between values parts separate entries of the source, which are not always exact repeats. Equal entries are not always repeated.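 Assay format: 96-well plates, 48-hour exposure. The concentration for 50% growth inhibition is given as GI50. TGI marks complete inhibition of growth.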
Tests used:
Test in all cases: DTP human tumour cell line panel, 48 h
SK-MEL-5 melanoma = test system: SK-MEL-5 melanoma
HCC-2998 colon = test system: HCC-2998 colon
NCI-H226 lung = test system: NCI-H226 lung
LOX IMVI melanoma = test system: LOX IMVI melanoma
CAKI-1 renal = test system: CAKI-1 renal
A498 renal = test system: A498 renal
NCI/ADR-RES ovarian = test system: NCI/ADR-RES ovarian
RPMI-8226 leukemia = test system: RPMI-8226 leukemia
NCI-H522 lung = test system: NCI-H522 lung
HOP-92 NSCLC = test system: HOP-92 NSCLC

SMILES	GI50 (SK-MEL-5 melanoma) [µM]	TGI (SK-MEL-5 melanoma)	GI50 (HCC-2998 colon) [µM]	TGI (HCC-2998 colon)	GI50 (NCI-H226 lung) [µM]	TGI (NCI-H226 lung) [µM]	GI50 (LOX IMVI melanoma) [µM]	TGI (LOX IMVI melanoma) [µM]	GI50 (CAKI-1 renal) [µM]	TGI (CAKI-1 renal) [µM]	GI50 (A498 renal) [µM]	TGI (A498 renal) [µM]	GI50 (NCI/ADR-RES ovarian) [µM]	TGI (NCI/ADR-RES ovarian) [µM]	GI50 (RPMI-8226 leukemia) [µM]	TGI (RPMI-8226 leukemia) [µM]	GI50 (NCI-H522 lung) [µM]	TGI (NCI-H522 lung) [µM]	TGI (HOP-92 NSCLC) [µM]	GI50 (HOP-92 NSCLC) [µM]
C[C@@H]1CC[C@@H]2[C@@H]1[C@H](OC(=O)/C=C/c1ccccc1)[C@]1(C3CCCCC3)C[C@@H](NC(=O)CO)[C@@]2(C)O1	15.3	29 µM	18.3	35.1 µM	16.7	32.4	17.8	32.5	6.01	19.7	2.19	6.61	12.9	32.1	20.8	44.4	17.1	33.6		
CCN1C(NN)=NS(=O)(=O)c2ccccc21		> 100 µM		> 100 µM		> 100		> 100		> 100		> 100		> 100				> 100	> 100	
CCOC(=O)C1=C(O)CSC1=Nc1ccccc1				> 100 µM		> 100		> 100		> 100						> 100		> 100	> 100	
CC(C)(C#N)c1cc(F)cc(C(=O)Nc2cc(Nc3ncccc3-c3ncnc4nc[nH]c34)ccc2F)c1	0.635	> 10 µM	1.12	> 10 µM	0.804	> 10	0.104	1.8			0.2	1.09	4.58	> 10	1.92	> 10	2.66	> 10	0.842	0.137
O=C1N(c2ccccc2)C(=O)C2(SC=NN2Cc2ccccc2)N1c1ccccc1 (stereo not given)		> 100 µM		> 100 µM		> 100		> 100		> 100		> 100						> 100	> 100	
C[C@]12CCc3nonc3C1CC[C@@H]1C2CC[C@]2(C)NC(=O)CCC12 (stereo not given in full)		> 100 µM				> 100		> 100		> 100		> 100				> 100		> 100	> 100	
O=C1c2ccccc2C(=O)c2c(NCCNCCO)ccc(O)c21		12.7 µM		17.8 µM		6.56		2.85		11.5		19.4				11.7		11.8	13.4	
O=S(=O)(O)c1ccc(-c2nnc(-c3ccccn3)nc2-c2ccc(S(=O)(=O)O)o2)o1		> 100 µM				> 100		> 100		> 100		> 100		> 100		> 100		> 100	> 100	
COc1ccc(C(=O)C(C(=O)C(=O)Nc2ccc(Cl)c(Cl)c2)c2ccc(OC)cc2)cc1 (stereo not given)		> 100 µM		> 100 µM		> 100		> 100		> 100		> 100				> 100			> 100	
Cc1cc(C2=NNC(=O)Cc3cc4c(cc32)OCCO4)cc(C)c1N	1.22	> 100 µM	3.26	44 µM	8.9	> 100	3.18	> 100	0.901	7.66	3.31	99.4	0.882	25.8			1.24	6.19	> 100	3.54
Cc1c(C(=O)C/C(=N/NC(=O)C[n+]2ccccc2)C(=O)Nc2ccccc2)[n+](=O)c2ccccc2n1O		> 100 µM		> 100 µM		> 100		> 100		> 100		> 100				> 100		> 100		
O=C(Nc1ccc(CN2CCOCC2)cc1)c1[nH]ncc1Nc1ncnc2sccc12	0.223	0.638 µM	0.68	5.08 µM	0.163	0.63			0.477	> 100	0.0363	0.461	0.578	> 100	0.517	4.33	0.413	4.17	> 100	5.52
CC1CCN(CCCCCOc2ccc3oc4cc(Cl)ccc4c(=O)c3c2)CC1	5.36	11.3 µM	6.25	13.1 µM	9.42	20.2	4.18	10.9			5.97	12.7	8.14	21.8	5.73	15.9	9.09	18	14.8	6.51
O=c1cccccc1NCCCCCCNc1cccccc1=O		> 100 µM		> 100 µM		> 100		> 100		> 100		> 100				> 100		> 100		
CC(=O)O[C@]1(C)OC(=O)[C@@H](C)N1[N+](=O)[O-]		> 100 µM		> 100 µM		> 100		> 100				> 100				> 100		> 100		
Cc1cccc(C(=O)/C=C/SC(=NC#N)SCc2ccccc2)c1	14.7	32.9 µM	19.3	39.4 µM			26.9	> 100	13.1	39.3			24.4	64.5	4.06	> 100	27.1	> 100	47.9	12.3
CN[C@@H](C)[C@@H](N)c1ccccc1		> 100 µM		> 100 µM		> 100		> 100		> 100		> 100				> 100		> 100	> 100	
Cn1cc(C2=C(c3cccnc3)C(=O)NC2=O)c2ccccc21	> 12	> 22.5 µM	> 25	> 25 µM	8.15	> 19.2	> 20.9	> 25	> 17.4	> 25	9.03	> 22.9	> 25	> 25	> 25	> 25	> 25	> 25		
CC/C(=C(/CC)c1ccc([O-])cc1)c1ccc([O-])cc1.CC/C(=C(\CC)c1ccc([O-])cc1)c1ccc([O-])cc1.O=C([CH-]C(=O)c1ccccc1)c1ccccc1.O=C([CH-]C(=O)c1ccccc1)c1ccccc1.O=C([CH-]C(=O)c1ccccc1)c1ccccc1.O=C([CH-]C(=O)c1ccccc1)c1ccccc1.[Ti+4].[Ti+4]			45.7	> 100 µM	28.1	61.2	43	> 100	23.5	58.5					71.4	> 100			50	19.5

SMILES	GI50 (SK-MEL-5 melanoma) [µM]	TGI (SK-MEL-5 melanoma)	GI50 (HCC-2998 colon) [µM]	TGI (HCC-2998 colon)	GI50 (NCI-H226 lung) [µM]	TGI (NCI-H226 lung) [µM]	GI50 (LOX IMVI melanoma) [µM]	TGI (LOX IMVI melanoma) [µM]	GI50 (CAKI-1 renal) [µM]	TGI (CAKI-1 renal) [µM]	GI50 (A498 renal) [µM]	TGI (A498 renal) [µM]	GI50 (NCI/ADR-RES ovarian) [µM]	TGI (NCI/ADR-RES ovarian) [µM]	GI50 (RPMI-8226 leukemia) [µM]	TGI (RPMI-8226 leukemia) [µM]	GI50 (NCI-H522 lung) [µM]	TGI (NCI-H522 lung) [µM]	TGI (HOP-92 NSCLC) [µM]	GI50 (HOP-92 NSCLC) [µM]
COc1c(NC(C)=O)cc(C)cc1NC(C)=O		> 100 µM		> 100 µM				> 100		> 100		> 100				> 100		> 100	> 100	
CN(C)c1ccc(/C=C2\N=C(c3ccc([N+](=O)[O-])cc3)OC2=O)cc1		> 100 µM		72.4 µM		> 100		61.2		> 100		> 100				> 100		> 100	97	
C=CC(C)(O)/C=C/C=C(\C)C(CC1OC1(C)C)OC(=O)/C(C)=C\C (stereo not given)		> 100 µM		> 100 µM				> 100		> 100		> 100		> 100		> 100		> 100	> 100	
COC(=O)C1=C(C(=O)OC)C23CC1C1C(C(=O)OC)=C(C(=O)OC)C12C1C=CC3C2C(=O)OC(=O)C21 (stereo not given)		> 100 µM		> 100 µM												> 100		63.5	> 100	
CO/N=C(\C)c1cccc(Nc2cc(-c3ccccc3)nc3c(O)cccc23)c1	16.6	39.2 µM	2.88	12.6 µM	19.8	> 100	8.56	24.3	2.78	13.7			2.02	13.5	2.91	8.59	2.78	6.95	28.9	5.28
C=CC(C=O)C1(O)CCOC(=O)/C1=C\N (stereo not given)	62.4	> 100 µM	> 100	> 100 µM	> 100	> 100	> 100	> 100	> 100	> 100			> 100	> 100	> 100	> 100	> 100	> 100		
Cc1cc(=O)[nH]o1				> 100 µM		> 100		> 100		> 100				> 100		> 100		> 100	> 100	
O=C1OCCC1C(O)C1c2ccccc2-c2ccccc21 (stereo not given)						> 100				> 100		> 100				> 100		> 100	> 100	
OCC1OC(OCC(O)C(O)C(O)C(/C=N/Nc2ccccc2)=N/Nc2ccccc2)C(O)C(O)C1O (stereo not given)		> 100 µM		> 100 µM				> 100		> 100				> 100		> 100			> 100	
CN=C(NC#N)NCCSCc1nc[nH]c1C		> 100 µM		> 100 µM		> 100		> 100		> 100		> 100		> 100				> 100	> 100	
C=CC[P+](c1ccccc1)(c1ccccc1)c1ccccc1	1.6	5.27 µM	3.19	> 100 µM	5.88	> 100	6.53	> 100	52.2	> 100	7.09	63	> 100	> 100	0.675	32.2	1.99	20.8		
CC1(C)CCc2cc3c(cc2O1)OCC1c2cc4c(cc2OC31)OCO4 (stereo not given)		> 100 µM		> 100 µM		> 100		> 100		> 100		> 100				> 100		> 100	> 100	
CCOc1cc2c(cc1O)/C(=N\O)C[C@@H]1[C@@H]2CC[C@]2(C)[C@@H](O)CC[C@@H]12	0.00618	1.32 µM and 10.2 µM	1.63	9.51 µM and > 41.1 µM	0.258	> 100	0.00721	> 63.8			0.604	> 100		> 100		0.0632			> 100	14.8
COc1ccc2c(c1)[n+]([O-])c(-c1ccccc1)c(N)[n+]2[O-]		35 µM		> 100 µM		> 100		> 100		92.3		> 100				> 100		34.4		
Oc1ccc(O)c(-c2cc(-c3ccccc3)nn2-c2ccccc2)c1	30.7	> 100 µM			18.7	51.4	10.2	25	30.6	> 100			11.5	29.7			31	> 100	> 100	88.9
Cc1ccc(Nc2n[nH]c(=S)s2)cc1		> 100 µM		> 100 µM		> 100		> 100		> 100		> 100		> 100		> 100			> 100	
CC(=O)c1cccc(NC(=O)C(=O)C(C2OC(=O)c3ccccc32)[N+](=O)[O-])c1 (stereo not given)		> 100 µM		> 100 µM		> 100		> 100		> 100		> 100				> 100			> 100	
COc1ccc(N=Nc2c(-c3ccccc3)nn(C(=O)CC(=O)Nc3cccc(Cl)c3)c2-c2ccccc2)cc1		> 100 µM		80.4 µM		68.1		> 100		> 100		> 100				> 100		> 100	> 100	
CC(C)(C)CC(C)(C)c1cc2c(O)c(c1)Cc1cc(C(C)(C)CC(C)(C)C)cc(c1O)Cc1cc(C(C)(C)CC(C)(C)C)cc(c1O)Cc1cc(C(C)(C)CC(C)(C)C)cc(c1O)Cc1cc(C(C)(C)CC(C)(C)C)cc(c1O)Cc1cc(C(C)(C)CC(C)(C)C)cc(c1O)C2		> 100 µM		> 100 µM												> 100		> 100	> 100	

— PubChem BioAssay (NCI)
